Read-outs that look alike come from different tables or passages of the source. Residues, ends and D or L forms follow the SMILES beside them. A value given as a limit tells only on which side of the number the result lay.

Data set [1] has as its system A549 alveolar epithelial cells. Put plainly: Apoptosis assay of A549 cells (flow cytometry, annexin V / propidium iodide). Type of data set: cell-based, human. To be noted: for apoptotic activity compared with the parent corisin sequence: single amino acid mutants, FIG. 35; for concentration at which apoptotic activity is shown: synthetic corisin. On the technique in general: A flow cytometer gives signals particle by particle.

Data set [2] deals with peptidase fraction prepared from Staphylococcus nepalensis culture supernatant (putative serine protease). It counts as biochemical.
A short description of data set [3]: Half-life of corisin in A549 cell culture medium. Particulars: A549 alveolar epithelial cell culture (cell supernatant), human alveolar (A549) cell culture system, read-out: half-life in the solution. The method, then: In order to ascertain how quickly corisin is metabolized in a cell culture system, the half-life of corisin was investigated. A549 alveolar epithelial cells were cultured in DMEM to which 10% fetal bovine serum had been added until confluent. Next, corisin was inoculated into a cell culture medium at a final concentration of 10 micrograms/mL, and cell supernatant was collected after 0, 1, 3, 6, 12, and 24 hours. The concentration of corisin was measured by an enzyme immunoassay method, and the half-life of corisin was examined. […] Therefore, serum corisin measurements should be performed immediately after the onset of acute exacerbation.

Data set [4] relates to TGFβ1 TG mice with pulmonary fibrosis. Put plainly: Corisin-induced acute exacerbation of pulmonary fibrosis in TGFβ1 TG mice. Type of data set: in vivo, mouse. Particulars: TGFβ1 TG mice with fibrosis treated with isotype antibody. The protocol: Next, TGFβ1 TG mice with pulmonary fibrosis were then assigned to two groups having corresponding computed tomography (CT) scan scores (FIG. 18a, b). CT examinations were performed as follows.
Lung CT was performed using a LaTheta LCT-200 micro CT purchased from Hitachi Aloka Medical (Tokyo, Japan). Mice were anesthetized by inhalation of isoflurane and then placed in the prone position to collect data (Non-Patent Literature 19, Reference Literature 61). Seven to nine specialists in pulmonary radiology, blinded to treatment groups, scored the CT findings on the TGFβ1 TG mice with pulmonary fibrosis based on previously reported and validated criteria as follows. Score 1, Normal lung findings; score 2, interim findings; score 3, mild pulmonary fibrosis; score 4, interim findings; score 5, moderate pulmonary fibrosis; score 6, interim findings; and score 7, progressive pulmonary fibrosis (Non-Patent Literature 19). The same criteria were used to score pulmonary inflammation and fibrosis in a BLM-induced pulmonary fibrosis mouse model (FIG. 21b).
A group of fibrosis-free TGFβ1 TG mice administered intratracheal corisin served as a control (FIG. 18a, b). […]

Data set [5] deals with Caki-2, HaCaT, ARPE-19, Caco-2, HIEC-6 and ihPOD cells. Put plainly: Caspase-3 cleavage by Western blotting in further epithelial cell lines. To be noted: 10 μg/mL peptide, 24 hours, all cell lines, vs scrambled peptide. It counts as cell-based, human. The source says:
Caki-2 cell line derived from proximal tubular epithelium, HaCaT keratinocyte cell line derived from adult skin, ARPE-19 retinal pigment epithelial cell line, Caco-2 cell line derived from colon cancer, and HIEC-6 cell line derived from normal human small intestinal epithelial cells were obtained from the American Type Culture Collection (American Type Culture Collection; Manassas, VA). RPMI 1640 culture medium was purchased from Sigma-Aldrich (St. Louis, Missouri) and fetal bovine serum (FBS) was purchased from Bio Whittaker (Bio Whittaker; Walkersville, Maryland). L-glutamine, penicillin, and streptomycin were obtained from Invitrogen (Carlsbad, California). Caki-2 cells, Caco-2 cells, and ihPOD cells were cultured in RPMI 1640 culture medium, HaCaT cells in DMEM culture medium, ARPE-19 cells in DMEM/F12 culture medium, and HIEC-6 cells in DMEM culture medium.
Each cell line was cultured until subconfluent to examine caspase-3 cleavage by Western blotting. […] Cells were stimulated with 10 μg/mL of a scrambled peptide, corisin, or corisin-like peptide, cultured for 24 hours, and then Western blotting was performed.
Background: Immunoblotting shows a protein as a band on a membrane.

Data set [6] concerns mice with bleomycin-induced pulmonary fibrosis. Put plainly: Intratracheal corisin in mice with bleomycin-induced pulmonary fibrosis. Type of data set: in vivo, mouse. To be noted: for CT scores after intratracheal corisin: 300 pg/mouse on day 20. An excerpt:
AE-Inducing Action of Corisin in Bleomycin-Induced Pulmonary Fibrosis Bleomycin (BLM)-induced pulmonary fibrosis in mice or rats is the most characterized and commonly used preclinical model for IPF studies (Reference Literature 28). It is unclear whether corisin exacerbates disease in BLM-induced pulmonary fibrosis. To address this question, an experimental model was developed in wild-type (WT) mice by infusing BLM via osmotic minipumps and administering corisin via intratracheal instillation (FIG. 21a). Bleomycin (BLM) or physiological saline (SAL) was infused from osmotic minipumps implanted subcutaneously in the backs of mice according to the experiment schedule for inducing acute exacerbation in mice with bleomycin-induced pulmonary fibrosis shown in FIG. 21a. Computed tomography (CT) scans were performed before and after intratracheal administration of corisin or a scrambled peptide before mouse euthanasia. Mice administered SAL via osmotic minipumps and intratracheal corisin or a scrambled peptide were used as a control. Mice were euthanized 22 days after BLM or SAL pump implantation.
After confirming pulmonary fibrosis onset by chest CT, autologous CT score criteria (FIG. 21b) were used to assign mice into two groups with concordant CT scores.
Wild-type (WT) mice were administered bleomycin (BLM) by osmotic minipump on day 0 and intratracheally instilled (75 μL) with corisin or a scrambled peptide (300 pg/mouse) on day 20 post-pump implantation. CTs were performed as described in Example 2. […] Next, wild-type (WT) mice were administered physiological saline (SAL) by osmotic minipump on day 0 and intratracheally instilled (75 μL) with corisin or a scrambled peptide (300 pg/mouse) on day 20 post-pump implantation.
Next, inflammatory cells and the like in mice with BLM-induced pulmonary fibrosis which had been administered intratracheal corisin were examined. Wild-type (WT) mice were administered bleomycin (BLM) or physiological saline (SAL) by osmotic minipump on day 0 and intratracheally instilled (75 μL) with corisin or a scrambled peptide ([…]) on day 20 post-pump implantation. BALF total cell counts were determined using a NucleoCounter and cell fraction counts were conducted after Giemsa staining using WindRoof image software. Levels of serum amyloid P component (SAP), MUC-1, monocyte chemoattractant protein-1 (MCP-1), periostin, collagen I, and osteopontin were measured by enzyme immunoassay according to the manufacturer's instructions.
Next, caspase-3 cleavage was evaluated by Western blotting and quantified. […] Collagen deposition was evaluated using Masson's trichrome staining and quantified using WindRoof imaging software. Pulmonary tissue content of hydroxyproline was measured by colorimetric analysis using a commercially available kit in accordance with the manufacturer's instructions. […] These findings indicate that corisin also exacerbates disease in BLM-induced pulmonary fibrosis.

Data set [7] concerns A549 alveolar epithelial cells. Nature of the data set: RT-PCR of mRNA expression of pro-apoptotic and anti-apoptotic factors. Type of data set: cell-based, human. To be noted: 50 μM corisin, 24 hours, vs scrambled peptides. The protocol: Next, the effect of corisin on mRNA expression of markers for pro-apoptotic factors such as Bax and anti-apoptotic factors BIRC1, BIRC5, BIRC7, Bcl2, BclXL, cyclin D1, proliferating cell nuclear antigens, and proliferating Ki-67 were examined. A549 alveolar epithelial cells were cultured in the presence of 50 μM corisin for 24 hours, total mRNA was extracted, and cDNA was prepared and amplified by RT-PCR.

The subject of data set [8] is mice having established pulmonary fibrosis. Particulars: cited from earlier work.
The mark [9] stands for this setting: BLM mice, 300 μg/mouse intratracheal, vs scrambled peptide.
Setting [10] is: BLM mice, corisin vs scrambled peptide.

With IVMPESSGNPNAVSPAGYR [corisin N14S], in data set [1], the “apoptotic activity compared with the parent corisin sequence” value is reported as “devoid of apoptotic activity”.
For `Cl.NCCc1ccc(S(=O)(=O)F)cc1` [Pefabloc SC], the “suppression of transglycosylase degradation” value in data set [2] (0.1, 0.3, 1 mM, 37° C. for 0.5, 1 and 2 hours) is listed as “suppress transglycosylase degradation”.
Consider `CC[C@H](C)[C@H](N)C(=O)N[C@H](C(=O)N[C@@H](CCSC)C(=O)N1CCC[C@H]1C(=O)N[C@@H](CCC(=O)O)C(=O)N[C@@H](CO)C(=O)N[C@@H](CO)C(=O)NCC(=O)N[C@@H](CC(N)=O)C(=O)N1CCC[C@H]1C(=O)N[C@@H](CC(N)=O)C(=O)N[C@@H](C)C(=O)N[C@H](C(=O)N[C@@H](CC(N)=O)C(=O)N1CCC[C@H]1C(=O)N[C@@H](C)C(=O)NCC(=O)N[C@@H](Cc1ccc(O)cc1)C(=O)N[C@@H](CCCNC(=N)N)C(=O)O)C(C)C)C(C)C` [corisin, IVMPESSGNPNAVNPAGYR] (H-IVMPESSGNPNAVNPAGYR-OH; N-terminus and C-terminus assumed), for which the half-life – broadly, the time in which the quantity being followed falls by half – at 10 micrograms/mL in data set [3] was below 1 h. In addition, the “CT findings after intratracheal corisin” value in data set [4] is “significantly worse”. Further, in data set [5], the “cleavage of caspase-3” value is given as “significantly increased”. Besides, the “concentration at which apoptotic activity is shown” value in data set [1] is 10 pg/mL. Besides, in data set [1] (A549 cells), the “concentration at which apoptotic activity is shown” value is 1e+07 pg/mL. Besides, the “apoptosis-inducing activity compared to the Staphylococcus haemolyticus peptide” value in data set [1] (synthetic peptides, A549 cells, FIG. 3) was “slightly higher”. Further, in data set [6] (setting [9]), the “circulation level of serum amyloid P component” value is “increased”, the “level of MUC-1” value is recorded as “increased”, the “level of collagen I” value was “increased” and the “level of monocyte chemoattractant protein-1 (MCP-1)” value is “increased”. Besides, in data set [6] (setting [9]), the level of osteopontin result was “increased”, the level of periostin entry is “increased” and the “total number of lymphocytes in BALF” value was “increased significantly”. Also, in data set [6] (setting [10]), the “collagen deposition in the lungs” value was “increased” and the “hydroxyproline content in the lungs” value is “increased”. The “caspase-3 cleavage (Western blotting)” value in data set [6] (BLM mice, intratracheal corisin vs scrambled peptide) is “significantly increased”. In addition, in data set [6] (SAL pump mice without fibrosis), the “changes in mice administered physiological saline via osmotic minipump” value was “no significant changes”. The “CT scores after intratracheal corisin” value in data set [6] (WT mice with BLM-induced pulmonary fibrosis) is “worsened significantly”. Also, the “CT scores after intratracheal corisin” value in data set [6] (mice without pulmonary fibrosis (SAL pump)) is recorded as “did not change”. Also, in data set [7], the “mRNA expression of anti-apoptotic factors” value was “significantly reduced”; the “mRNA expression of pro-apoptotic factors such as Bax and APAF-1” value is on record as “significantly increased”. The “effect of intrapulmonary administration” value in data set [8] was “causes apoptosis of alveolar epithelial cells and acute exacerbation (AE)”.
As for `O=C(O)CN(CCN(CC(=O)O)CC(=O)O)CC(=O)O` [EDTA, ethylenediaminetetraacetic acid], in data set [2], the “suppression of transglycosylase degradation” value is “neither E-64 nor EDTA suppressed transglycosylase degradation”.
As for IVMPESSGNPNAVNAAGYR [corisin P15A], the “apoptotic activity compared with the parent corisin sequence” value in data set [1] is “devoid of apoptotic activity”.

The values above are taken from patent US20260116957A1, “PHARMACEUTICAL COMPOSITION FOR AMELIORATING ACUTE LUNG INJURY AND ACUTE WORSENING OF PULMONARY FIBROSIS” (priority 2021, published 2026).
